{"source": "patent US12527804B2", "about": "“Microemulsion delivery systems for alcohol-soluble species including DHEA, pregnenolone, and chrysin for reducing menopausal symptoms” (Quicksilver Scientific, Inc., priority 2021, dated 2026)", "key": {"[1]": {"system": "peri- and postmenopausal subjects", "assay": "Combination therapy of MOIW microemulsion with progesterone, menopausal symptoms", "type": "in vivo, human", "conditions": "most perimenopausal subjects, administered daily in combination with MOIW microemulsion", "method": "Dosing for this combination therapy includes use of the present MOIW microemulsion as previously described with the addition of progesterone. For use in the alleviation of menopausal symptoms, from 5 mg to 18 mg of progesterone is preferably administered daily, with 8 mg to 16 mg of progesterone providing a therapeutically effective dose for postmenopausal subjects and with 8 mg to 10 mg of progesterone providing a therapeutically effective dose for perimenopausal subjects. A therapeutically effective dose for most perimenopausal subjects was determined to be approximately 8 mg.\nA preferred dosing for this combination therapy includes intra-oral administration of the MOIW microemulsion ante meridiem with topical administration of the thickened MOIW post meridiem. For perimenopausal subjects using intermittent dosing of the MOIW microemulsion, the same intermittent dosing is also preferred for the thickened MOIW microemulsion progesterone topical."}, "[2]": {"assay": "Solubility of DHEA in ethanol and MCT oil", "type": "physicochemical", "source_text": "An alcohol-soluble species is a species that is insoluble in water and has a greater solubility in ethanol than in medium chain triglyceride (MCT) oils. […] Alcohol-soluble species are preferably pharmacologically active, more preferably are a drug or a supplement, and neither include nor are water. Thus, liquids and solids may exist that technically are soluble in alcohol, but because they also are soluble in water or more or equivalently soluble in MCT oils than in ethanol are not “alcohol-soluble species”.\nSolubilized means that the alcohol-soluble species to be delivered is in the solution of the droplet. […] Thus, if either average particle diameters greater than 200 nm or precipitated crystals visible to the naked eye form, the alcohol-soluble species is not solubilized in the solution of the droplet. If an alcohol-soluble species is not solubilized in the solution, it is insoluble in the solution. In many respects, solubility may be thought of as a concentration dependent continuum. For example, the following descriptive terms may be used to express solubility of a solute in a solvent (grams solid/mL of solvent) at 25 degrees Celsius: […]"}}, "note": "Like-named read-outs stand apart in the source and are kept apart here."}
{"compound": "CC(=O)[C@H]1CC[C@H]2[C@@H]3CCC4=CC(=O)CC[C@]4(C)[C@H]3CC[C@]12C", "note": "[progesterone]", "values": [{"measurement": "therapeutically effective dose of progesterone", "setting": "[1]", "value": "approximately 8 mg"}]}
{"compound": "C[C@]12CC[C@H](O)CC1=CC[C@@H]1[C@@H]2CC[C@]2(C)C(=O)CC[C@@H]12", "note": "[DHEA, dehydroepiandrosterone (3-beta-hydroxyandrosteron-5-en-17-one)]", "values": [{"measurement": "solubility", "setting": "[2]; ethanol, organic solvent or mixture, read-out: solubility in ethanol", "value": "~150", "unit": "mg/mL"}, {"measurement": "solubility", "setting": "[2]; medium chain triglyceride (MCT) oil, oil or lipid, MCT oil, read-out: solubility in MCT oil", "value": "~10", "unit": "mg/mL"}]}
